Reference: patent publication US6455555B1, “Anti-HIV infection agents and method for treating HIV infection” (Kabushiki Kaisha Hayashibara Seibutsu Kagaku Kenkyujo, priority 2001, dated 2002)
Entries after “also recorded” stand apart in the source; their conditions may differ. Like-named read-outs stand apart in the source and are kept apart here.

How the values were obtained:
[1] = cited from earlier work
[2] = system: patient suffering from ARC (HIV infection); assay: Clinical Experiment 1: formulation 1 tablets with active ingredient A given to one ARC patient; format: in vivo, human
Procedure: (§1) The clinical experiments using the agent for anti-HIV infection of the present invention are explained in the following. The clinical experiments described below were conducted in Thailand without informing the patients of the compound names, chemical structures, etc. of the photosensitizing dyes used as the active ingredient.
The agent for anti-HIV infection of the present invention was administered to a patient suffering from ARC. They had been diagnosed with HIV infection five years before and received administration of AZT/ddI/RTV for 14 months.
His bronchial asthma, a symptom of ARC, was also cured.

[3] = system: patients suffering from ARC or AIDS (HIV infection); assay: Clinical Experiment 2: formulation 1 tablets with active ingredient A given to seven patients with ARC or AIDS; format: in vivo, human
Procedure: as §1
Seven patients suffering from ARC or AIDS were given the agent for anti-HIV infection of the present invention of formulation 1 containing the active ingredient A. Their medical history before treatment was as follows:
Along therewith, their appetite increased, rash, one of the symptoms of ARC, decreased, hemorrhoid was cured, and insomnia was ameliorated.

HIV (HTLV-IIIB) = assay: microbe, parasite or virus in culture; format: cell-based; conditions: for suppression of HIV replication (in words): at the tested concentrations (20-500 μM)
Procedure: To examine the effect on HIV infected cell, MT-4 cells (number of cells at the start of culture 1×10^4/well), that underwent anti-HIV assay, were infected with an HIV (HTLV-IIIB, 200 CCID50/well), cultured at 37° C. for 4 days, and determined for the inhibitory effect on HIV replication, according to the method by Pauels, R. et al., in J. Virol. Methods, 16, 171-185 (1987). Suramin was used as a control.

[4] = after a further 16 weeks, daily dose 1000 μg, following 8 weeks at 500 μg
[5] = 8 weeks, 500 μg/day, one patient per line
[6] = 20 μM, MT-4 cells, HTLV-IIIB 200 CCID50/well, 4 days at 37° C.
[7] = 100 μM, MT-4 cells, HTLV-IIIB 200 CCID50/well, 4 days at 37° C.
[8] = 500 μM, MT-4 cells, HTLV-IIIB 200 CCID50/well, 4 days at 37° C.

CCN1C=CC(=CC=C(C=Cc2cc[n+](CC)c3ccccc23)c2cc[n+](CC)c3ccccc23)c2ccccc21.[I-].[I-] [Active ingredient A]
side effects such as toxic state ([1]; oral administration at 4 g/kg): does not cause any side effects
other improvement (in words) ([2]; after 8 weeks, daily dose 500 μg): increased appetite and increased pectoral muscle
body weight ([2]; after 8 weeks, daily dose 500 μg, 55.6 kg before administration): 56.9 kg
CD4 count ([2]; after 8 weeks, daily dose 500 μg, 121/mm^3 before administration, person): 181 /mm^3
bronchial asthma, a symptom of ARC ([2]; after a further 16 weeks, daily dose 1000 μg): cured
CD4 count [2, 4]: 192 /mm^3
body weight [2, 4]: 57.1 kg
Improvement (Symptoms of ARC etc.) [3, 5]: Increased appetite; also recorded: Amelioration of insomnia; also recorded: Cure of hemorrhoids; also recorded: Decrease of rash
Side effects [3, 5]: None
overall clinical effect (in words) ([3]; HIV-infected patients): most of the patients showed an increase in the CD4 count and in the body weight
Inhibition (%) of HIV replication (HIV (HTLV-IIIB); [6]): 1%
Inhibition (%) of HIV replication (HIV (HTLV-IIIB); [7]): 2%
Inhibition (%) of HIV replication (HIV (HTLV-IIIB); [8]): 1%
suppression of HIV replication (in words) (HIV (HTLV-IIIB); listed as active ingredients A): no anti-virus activity to suppress reproduction of HIV; also recorded: did not suppress the replication of HIV

CCCCCCCN1C(C)=CSC1=CC=C(C=Cc1scc(C)[n+]1CCCCCCC)c1scc(C)[n+]1CCCCCCC.[I-].[I-] [Active ingredient B]
LD50 ([1]; intraperitoneal administration): 54 mg/kg
LD50 ([1]; oral administration): 1500 mg/kg
Inhibition (%) of HIV replication (HIV (HTLV-IIIB); [6]): 2%
Inhibition (%) of HIV replication (HIV (HTLV-IIIB); [7]): 1%
Inhibition (%) of HIV replication (HIV (HTLV-IIIB); [8]): 2%
suppression of HIV replication (in words) (HIV (HTLV-IIIB)): no anti-virus activity to suppress reproduction of HIV; also recorded: did not suppress the replication of HIV

Cc1ccc(C(=O)Nc2ccc(S(=O)(=O)O)c3cc(S(=O)(=O)O)cc(S(=O)(=O)O)c23)cc1NC(=O)c1cccc(NC(=O)Nc2cccc(C(=O)Nc3cc(C(=O)Nc4ccc(S(=O)(=O)O)c5cc(S(=O)(=O)O)cc(S(=O)(=O)O)c45)ccc3C)c2)c1 [Suramin, reference compound]
inhibition at 0.8 µM (HIV (HTLV-IIIB); Human immunodeficiency virus 1, MT4, 96 h, 0.8 μM, MT-4 cells, HTLV-IIIB 200 CCID50/well, 4 days at 37° C., read-out: Inhibition (%) of HIV replication): 2%
inhibition at 4 µM (HIV (HTLV-IIIB); Human immunodeficiency virus 1, MT4, 96 h, 4 μM, MT-4 cells, HTLV-IIIB 200 CCID50/well, 4 days at 37° C., read-out: Inhibition (%) of HIV replication): 10%
inhibition at 20 µM (HIV (HTLV-IIIB); Human immunodeficiency virus 1, MT4, 96 h, 20 μM, MT-4 cells, HTLV-IIIB 200 CCID50/well, 4 days at 37° C., read-out: Inhibition (%) of HIV replication): 100%
inhibition at 100 µM (HIV (HTLV-IIIB); Human immunodeficiency virus 1, MT4, 96 h, 100 μM, MT-4 cells, HTLV-IIIB 200 CCID50/well, 4 days at 37° C., read-out: Inhibition (%) of HIV replication): 100%
